Laboratory results published in PubChem BioAssay AID1845195 (Molecular Pharmacology Branch, DTP, NCI, 2023).

System: 156681-154-R-J1 tumor spheroid viability
Test: Anticancer human tumor 156681-154-R-J1 patient-derived melanoma cell line growth inhibition
Conditions: spheroids with HUVEC and MSC; for IC50: curve of first compound; for viability, T/C: stronger effect = lower value
Procedure, shortened: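 Complex spheroids of malignant cells with endothelial cells and mesenchymal stem cells; agents alone or combined, from near clinical Cmax (or 10 microM if unknown) down in half-log steps, 0.25% DMSO final.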

[1] = second compound 30 pM, first compound 0.0316 µM
[2] = second compound 30 pM, first compound 0.1 µM
[3] = second compound 30 pM, first compound 0.316 µM
[4] = second compound 30 pM, first compound 1 µM
[5] = second compound 30 pM, first compound 3.16 µM
[6] = second compound 30 pM, first compound 10 µM
[7] = second compound 94.9 pM, first compound 0.0316 µM
[8] = second compound 94.9 pM, first compound 0.1 µM
[9] = second compound 94.9 pM, first compound 0.316 µM
[10] = second compound 94.9 pM, first compound 1 µM
[11] = second compound 94.9 pM, first compound 3.16 µM
[12] = second compound 94.9 pM, first compound 10 µM
[13] = second compound 0.0003 µM, first compound 0.0316 µM
[14] = second compound 0.0003 µM, first compound 0.1 µM
[15] = second compound 0.0003 µM, first compound 0.316 µM
[16] = second compound 0.0003 µM, first compound 1 µM
[17] = second compound 0.0003 µM, first compound 3.16 µM
[18] = second compound 0.0003 µM, first compound 10 µM
[19] = second compound 0.000949 µM, first compound 0.0316 µM
[20] = second compound 0.000949 µM, first compound 0.1 µM
[21] = second compound 0.000949 µM, first compound 0.316 µM
[22] = second compound 0.000949 µM, first compound 1 µM
[23] = second compound 0.000949 µM, first compound 3.16 µM
[24] = second compound 0.000949 µM, first compound 10 µM
[25] = second compound 0.003 µM, first compound 0.0316 µM
[26] = second compound 0.003 µM, first compound 0.1 µM
[27] = second compound 0.003 µM, first compound 0.316 µM
[28] = second compound 0.003 µM, first compound 1 µM
[29] = second compound 0.003 µM, first compound 3.16 µM
[30] = second compound 0.003 µM, first compound 10 µM
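Note: spheroids exposed to compounds for 7 days before readout.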
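Throughout, for viability, T/C: percent of vehicle control viability where 100% = DMSO-treated spheroids.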

## COc1ccc([C@@H](O)c2cc(-c3ncnc4cc(N5CCOCC5)ccc34)c(F)cc2Cl)nn1 + COc1cc2c(cc1O)CCNC21CSC2c3c(OC(C)=O)c(C)c4c(c3C(COC1=O)N1C(O)C3Cc5cc(C)c(OC)c(O)c5C(C21)N3C)OCO4
Second compound 30 pM
  IC50: 9.85 µM
Second compound 94.9 pM
  IC50: 5.11 µM
Second compound 0.0003 µM
  IC50: 0.427 µM
Second compound 0.000949 µM
  IC50: < 0.0316 µM
Second compound 0.003 µM
  IC50: < 0.0316 µM
[1]
  viability, T/C: 118%
[2]
  viability, T/C: 107%
[3]
  viability, T/C: 88.5%
[4]
  viability, T/C: 84.7%
[5]
  viability, T/C: 64%
[6]
  viability, T/C: 49.5%
[7]
  viability, T/C: 108%
[8]
  viability, T/C: 92%
[9]
  viability, T/C: 89.9%
[10]
  viability, T/C: 69.5%
[11]
  viability, T/C: 55.9%
[12]
  viability, T/C: 41.5%
[13]
  viability, T/C: 83.5%
[14]
  viability, T/C: 79.5%
[15]
  viability, T/C: 54.1%
[16]
  viability, T/C: 32.4%
[17]
  viability, T/C: 4.29%
[18]
  viability, T/C: 0.28%
[19]
  viability, T/C: 5.23%
[20]
  viability, T/C: 2.87%
[21]
  viability, T/C: 0.68%
[22]
  viability, T/C: 0.1%
[23]
  viability, T/C: 0.07%
[24]
  viability, T/C: 0.18%
[25]
  viability, T/C: 0.27%
[26]
  viability, T/C: 0.3%
[27]
  viability, T/C: 0.22%
[28]
  viability, T/C: 0.18%
[29]
  viability, T/C: 0.16%
[30]
  viability, T/C: 0.28%

## Cc1cc(C)c(CNC(=O)c2cc(-c3ccc(CN4CCOCC4)cc3)cc3c2cnn3C2CCCC2)c(=O)[nH]1 + COc1cc2c(cc1O)CCNC21CSC2c3c(OC(C)=O)c(C)c4c(c3C(COC1=O)N1C(O)C3Cc5cc(C)c(OC)c(O)c5C(C21)N3C)OCO4
Second compound 30 pM
  IC50: > 10 µM
Second compound 94.9 pM
  IC50: > 10 µM
Second compound 0.0003 µM
  IC50: > 10 µM
Second compound 0.000949 µM
  IC50: < 0.0316 µM
Second compound 0.003 µM
  IC50: < 0.0316 µM
[1]
  viability, T/C: 103%
[2]
  viability, T/C: 106%
[3]
  viability, T/C: 87.3%
[4]
  viability, T/C: 78.7%
[5]
  viability, T/C: 81.5%
[6]
  viability, T/C: 87.8%
[7]
  viability, T/C: 100%
[8]
  viability, T/C: 93.8%
[9]
  viability, T/C: 89%
[10]
  viability, T/C: 77.6%
[11]
  viability, T/C: 86.4%
[12]
  viability, T/C: 78.8%
[13]
  viability, T/C: 76.2%
[14]
  viability, T/C: 74.5%
[15]
  viability, T/C: 76.2%
[16]
  viability, T/C: 79.6%
[17]
  viability, T/C: 72.7%
[18]
  viability, T/C: 66.4%
[19]
  viability, T/C: 4.8%
[20]
  viability, T/C: 6.16%
[21]
  viability, T/C: 5.29%
[22]
  viability, T/C: 6.16%
[23]
  viability, T/C: 3.09%
[24]
  viability, T/C: 1.36%
[25]
  viability, T/C: 0.35%
[26]
  viability, T/C: 0.31%
[27]
  viability, T/C: 0.24%
[28]
  viability, T/C: 0.18%
[29]
  viability, T/C: 0.16%
[30]
  viability, T/C: 0.28%

## [2H]c1nc(C)nc([2H])c1-c1cc(NC[C@@H](C)c2cccc3c(C(=O)NC)ccnc23)ncn1 + COc1cc2c(cc1O)CCNC21CSC2c3c(OC(C)=O)c(C)c4c(c3C(COC1=O)N1C(O)C3Cc5cc(C)c(OC)c(O)c5C(C21)N3C)OCO4
Second compound 30 pM
  IC50: > 10 µM
Second compound 94.9 pM
  IC50: > 10 µM
Second compound 0.0003 µM
  IC50: > 10 µM
Second compound 0.000949 µM
  IC50: < 0.0316 µM
Second compound 0.003 µM
  IC50: < 0.0316 µM
[1]
  viability, T/C: 91.3%
[2]
  viability, T/C: 96%
[3]
  viability, T/C: 109%
[4]
  viability, T/C: 95.1%
[5]
  viability, T/C: 92.3%
[6]
  viability, T/C: 94%
[7]
  viability, T/C: 89.6%
[8]
  viability, T/C: 111%
[9]
  viability, T/C: 105%
[10]
  viability, T/C: 85%
[11]
  viability, T/C: 90.4%
[12]
  viability, T/C: 76.8%
[13]
  viability, T/C: 79.7%
[14]
  viability, T/C: 86.6%
[15]
  viability, T/C: 80%
[16]
  viability, T/C: 75.3%
[17]
  viability, T/C: 81.9%
[18]
  viability, T/C: 62.4%
[19]
  viability, T/C: 6.44%
[20]
  viability, T/C: 4.98%
[21]
  viability, T/C: 4.24%
[22]
  viability, T/C: 4.33%
[23]
  viability, T/C: 3.62%
[24]
  viability, T/C: 3.23%
[25]
  viability, T/C: 0.26%
[26]
  viability, T/C: 0.3%
[27]
  viability, T/C: 0.22%
[28]
  viability, T/C: 0.17%
[29]
  viability, T/C: 0.17%
[30]
  viability, T/C: 0.28%
